Measurements: US8859493B2, “Insulin derivatives” (Novo Nordisk A/S, priority 2005, dated 2014)

Target: human insulin receptor (Homo sapiens, UniProt P06213)
Test: Insulin receptor binding, SPA (Scintillation Proximity Assay) microtiterplate antibody capture assay
Conditions: relative to human insulin; purified recombinant human insulin receptor - exon 11; A14 Tyr[125I]-human insulin tracer; 16 hours incubation
Method: The affinity of the insulin analogues of the invention for the human insulin receptor was determined by a SPA assay (Scintillation Proximity Assay) microtiterplate antibody capture assay. SPA-PVT antibody-binding beads, anti-mouse reagent (Amersham Biosciences, Cat No. PRNQ0017) were mixed with 25 ml of binding buffer (100 mM HEPES pH 7.8; 100 mM sodium chloride, 10 mM MgSO4, 0.025% Tween-20). Reagent mix for a single Packard Optiplate (Packard No. 6005190) is composed of 2.4 μl of a 1:5000 diluted purified recombinant human insulin receptor—exon 11, an amount of a stock solution of A14 Tyr[^125I]-human insulin corresponding to 5000 cpm per 100 μl of reagent mix, 12 μl of a 1:1000 dilution of F12 antibody, 3 ml of SPA-beads and binding buffer to a total of 12 ml. A total of 100 μl was then added and a dilution series is made from appropriate samples. To the dilution series was then added 100 μl of reagent mix and the samples were incubated for 16 hours while gently shaken. The phases were the then separated by centrifugation for 1 min and the plates counted in a Topcounter. The binding data were fitted using the nonlinear regression algorithm in the GraphPad Prism 2.01 (GraphPad Software, San Diego, Calif.).

human insulin receptor, sequence (P06213 28-746 isoform P06213-2 limits assumed): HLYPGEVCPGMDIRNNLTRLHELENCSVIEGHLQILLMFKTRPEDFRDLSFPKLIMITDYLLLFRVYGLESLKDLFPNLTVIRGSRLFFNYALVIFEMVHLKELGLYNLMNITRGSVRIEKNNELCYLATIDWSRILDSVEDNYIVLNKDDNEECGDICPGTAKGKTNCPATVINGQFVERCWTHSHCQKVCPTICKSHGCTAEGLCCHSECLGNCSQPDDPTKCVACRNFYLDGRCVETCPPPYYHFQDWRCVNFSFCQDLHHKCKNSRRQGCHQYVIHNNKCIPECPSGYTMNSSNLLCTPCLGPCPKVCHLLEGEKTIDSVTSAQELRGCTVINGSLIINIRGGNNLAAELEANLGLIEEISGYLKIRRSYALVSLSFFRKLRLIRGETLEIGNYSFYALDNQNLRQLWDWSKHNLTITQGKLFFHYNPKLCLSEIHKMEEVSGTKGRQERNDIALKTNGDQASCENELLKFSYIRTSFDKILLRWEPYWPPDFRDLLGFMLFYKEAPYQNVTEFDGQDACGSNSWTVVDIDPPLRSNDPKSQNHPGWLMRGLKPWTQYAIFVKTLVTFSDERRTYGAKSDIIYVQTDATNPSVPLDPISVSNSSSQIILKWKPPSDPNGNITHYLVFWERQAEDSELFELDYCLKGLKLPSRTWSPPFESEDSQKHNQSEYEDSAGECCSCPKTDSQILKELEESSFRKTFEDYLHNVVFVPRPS
human insulin receptor, sequence (P06213 763-1382 partner limits assumed): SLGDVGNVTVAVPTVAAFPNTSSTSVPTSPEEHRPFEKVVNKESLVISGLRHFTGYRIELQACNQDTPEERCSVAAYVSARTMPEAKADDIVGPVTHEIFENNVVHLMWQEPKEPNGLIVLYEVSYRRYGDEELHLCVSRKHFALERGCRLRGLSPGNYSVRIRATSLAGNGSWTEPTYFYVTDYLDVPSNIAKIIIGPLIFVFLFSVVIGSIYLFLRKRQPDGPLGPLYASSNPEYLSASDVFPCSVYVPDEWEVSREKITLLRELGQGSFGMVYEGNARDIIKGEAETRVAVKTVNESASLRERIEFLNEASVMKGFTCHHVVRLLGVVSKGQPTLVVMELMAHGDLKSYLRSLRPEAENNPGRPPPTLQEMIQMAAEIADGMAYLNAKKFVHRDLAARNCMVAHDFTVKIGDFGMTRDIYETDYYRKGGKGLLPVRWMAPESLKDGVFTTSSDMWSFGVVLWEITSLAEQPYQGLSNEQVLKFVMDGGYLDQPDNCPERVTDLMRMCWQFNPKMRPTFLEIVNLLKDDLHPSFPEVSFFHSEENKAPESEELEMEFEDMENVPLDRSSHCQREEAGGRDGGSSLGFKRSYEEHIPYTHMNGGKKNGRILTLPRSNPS

Row | Substance | Insulin receptor affinity in relation to human insulin
1 | N^εB29-(3-[2-(2-{2-[2-(2-{2-[2-(13-carboxy-tridecanoylamino)-ethoxy]-ethoxy)-ethoxy)-ethoxy]-ethoxy}-ethoxy)-ethoxy]-ethoxy}-propionoyl-γ-glutamyl) desB30 human insulin [example 16] | 31
2 | N^εB29-(3-[2-(2-(2-[2-(13-Carboxy-tridecanoylamino)-ethoxy)-ethoxy]-ethoxy)-ethoxy]-propionoyl-γ-glutamyl) desB30 human insulin [example 15] | 35
3 | N^εB29-(ω-[2-(2-{2-[2-(2-carboxy-ethoxy)-ethoxy]-ethoxy}-ethoxy)-ethylcarbamoyl]-heptadecanoyl-α-glutamyl) desB30 human insulin [example 4] | 9.2
4 | N^εB29-(3-(3-{4-[3-(7-Carboxyheptanoylamino)propoxy]butoxy}propylcarbamoyl)-propionyl-γ-glutamyl) desB30 human insulin [example 8] | 34
5 | N^εB29-3-[2-(2-{2-[2-(ω-carboxy-heptadecanoylamino)-ethoxy]-ethoxy}-ethoxy)-ethoxy]-propionyl-γ-glutamyl desB30 human insulin [example 6] | 8.3
6 | N^εB29-(3-[2-{2-(2-[ω-carboxy-pentadecanoyl-γ-glutamyl-(2-amino-ethoxy)]-ethoxy)-ethoxy}-ethoxy]-propionyl) desB30 human insulin [example 1] | 11
7 | N^εB29-(ω-[2-(2-{2-[2-(2-carboxy-ethoxy)-ethoxy]-ethoxy}-ethoxy)-ethylcarbamoyl]-heptadecanoyl-γ-glutamyl) desB30 human insulin [example 5] | 5.6
8 | N^εB29-(3-(2-{2-[2-(2-{2-[2-(2-{2-[2-(2-{2-[2-(13-carboxy-tridecanoylamino)-ethoxy]-ethoxy}-ethoxy)-ethoxy]-ethoxy}-ethoxy)-ethoxy]-ethoxy}-ethoxy)-ethoxy]-ethoxy}-ethoxy)-propionoyl-γ-glutamyl) desB30 human insulin [example 14] | 15

The next lines start with the values.

Row | Insulin receptor affinity in relation to human insulin | Substance
9 | 17 | N^εB29-(3-[2-(2-{2-[2-(15-carboxypentadecanoylamino)ethoxy]ethoxy}ethoxy)-ethoxy]propionyl)) desB30 human insulin [example 13]
10 | 17 | N^εB29-(3-(2-{2-[2-(15-Carboxy-pentadecanoylamino)-ethoxy]-ethoxy}-ethylcarbamoyl)-propionyl-γ-glutamyl) desB30 human insulin [example 17]
11 | 27 | N^εB29-(3-(2-{2-[2-(9-carboxynonanoylamino)ethoxy]ethoxy}ethylcarbamoyl) propionyl-γ-glutamyl) desB30 human insulin [example 10]
12 | 12 | N^εB29-(3-[2-{2-(2-[ω-carboxy-heptadecanoyl-γ-glutamyl-(2-amino-ethoxy)]-ethoxy)-ethoxy}-ethoxy]-propionyl) desB30 human insulin [example 2]
13 | 34 | N^εB29-(3-(3-{2-[2-(3-[9-Carboxynonanoylamino]propoxy)ethoxy]ethoxy}-propylcarbamoyl)propionyl) desB30 human insulin [example 9]
14 | 14 | N^εB29-{3-[2-(2-{2-[2-(15-carboxy-pentadecanoylamino)-ethoxy]-ethoxy}-ethoxy)-ethoxy]-propionyl-γ-glutamyl desB30 human insulin [example 3]
15 | 35 | N^εB29-(3-(3-{2-[2-(3-[7-carboxyheptanoylamino]propoxy)ethoxy]-ethoxy}propylcarbamoyl)propionyl) desB30 human insulin [example 7]
